In PubChem BioAssay AID1259407 (Chemical Carcinogenesis Research Information System (CCRIS), 2018):
“Also recorded” adds a separate entry of the source. Active and inactive are the calls of the source. The rule behind the calls is not given here.

System: CCRIS mutagenicity, Ames/micronucleus/aberration tests
Test: CCRIS mutagenicity studies

For `CC/C(=C(/CC)c1ccc(O)cc1)c1ccc(O)cc1`, the mutagenic call (End Point: IN VITRO CHROMOSOMAL ABERRATIONS, Test System: CHINESE HAMSTER CELL DON (22;XY), Metabolic Activation: NONE) was “active; positive (ploidy changes)”, the mutagenic call (End Point: IN VITRO CHROMOSOMAL ABERRATIONS, Test System: HUMAN LYMPHOCYTES, Metabolic Activation: NONE, Method: FISH) was “active; positive (ploidy changes in chromosomes 1, 9, 16); also recorded: active; positive (ploidy changes in chromosomes 7 and 9)” and the mutagenic call (End Point: IN VITRO CHROMOSOMAL ABERRATIONS, Test System: HUMAN PERIPHERAL LYMPHOCYTES, Metabolic Activation: NONE) was “inactive; negative”. For the same compound, the mutagenic call (End Point: IN VITRO CHROMOSOMAL ABERRATIONS, Test System: SYRIAN HAMSTER EMBRYO (SHE) CELLS, Metabolic Activation: NONE) was “active; positive (ploidy changes)”, the mutagenic call (End Point: IN VITRO MICRONUCLEUS, Test System: HUMAN PERIPHERAL LYMPHOCYTES, Metabolic Activation: NONE) was “active; positive” and the mutagenic call (End Point: IN VITRO MICRONUCLEUS, Test System: V79 CELLS, Metabolic Activation: NONE) was “active; positive”. The mutagenic call (Test System: AMES SALMONELLA TYPHIMURIUM, Strain/Indicator: TA97, Metabolic Activation: HAMSTER LIVER S-9, AROCLOR 1254 (10%), Method: PREINCUBATION) was “inactive; negative”, the mutagenic call (Test System: AMES SALMONELLA TYPHIMURIUM, Strain/Indicator: TA97, Metabolic Activation: HAMSTER LIVER S-9, AROCLOR 1254 (30%), Method: PREINCUBATION) was “inactive; negative” and the mutagenic call (Test System: AMES SALMONELLA TYPHIMURIUM, Strain/Indicator: TA97, Metabolic Activation: NONE, Method: PREINCUBATION) was “inactive; negative”. The mutagenic call (Test System: AMES SALMONELLA TYPHIMURIUM, Strain/Indicator: TA97, Metabolic Activation: NONE, Method: STANDARD PLATE) was “inactive; negative”, the mutagenic call (Test System: AMES SALMONELLA TYPHIMURIUM, Strain/Indicator: TA97, Metabolic Activation: RAT LIVER S-9, AROCLOR 1254 (10%), Method: PREINCUBATION) was “inactive; negative” and the mutagenic call (Test System: AMES SALMONELLA TYPHIMURIUM, Strain/Indicator: TA97, Metabolic Activation: RAT LIVER S-9, AROCLOR 1254 (30%), Method: PREINCUBATION) was “inactive; negative”. The mutagenic call (Test System: AMES SALMONELLA TYPHIMURIUM, Strain/Indicator: TA97, Metabolic Activation: RAT, LIVER, S-9, AROCLOR 1254, Method: STANDARD PLATE) was “inactive; negative”, the mutagenic call (Test System: AMES SALMONELLA TYPHIMURIUM, Strain/Indicator: TA97, Metabolic Activation: S-9, Method: STANDARD PLATE) was “inactive; negative” and the mutagenic call (Test System: AMES SALMONELLA TYPHIMURIUM, Strain/Indicator: TA98, Metabolic Activation: HAMSTER LIVER S-9, AROCLOR 1254 (10%), Method: PREINCUBATION) was “inactive; negative”. For the same compound, the mutagenic call (Test System: AMES SALMONELLA TYPHIMURIUM, Strain/Indicator: TA98, Metabolic Activation: HAMSTER LIVER S-9, AROCLOR 1254 (30%), Method: PREINCUBATION) was “inactive; negative”, the mutagenic call (Test System: AMES SALMONELLA TYPHIMURIUM, Strain/Indicator: TA98, Metabolic Activation: NONE, Method: PREINCUBATION) was “inactive; negative” and the mutagenic call (Test System: AMES SALMONELLA TYPHIMURIUM, Strain/Indicator: TA98, Metabolic Activation: RAT LIVER S-9, AROCLOR 1254 (10%), Method: PREINCUBATION) was “inactive; negative”. The mutagenic call (Test System: AMES SALMONELLA TYPHIMURIUM, Strain/Indicator: TA98, Metabolic Activation: RAT LIVER S-9, AROCLOR 1254 (30%), Method: PREINCUBATION) was “inactive; negative”, the mutagenic call (Test System: AMES SALMONELLA TYPHIMURIUM, Strain/Indicator: TA98, Metabolic Activation: RAT, LIVER, S-9, AROCLOR 1254, Method: STANDARD PLATE) was “inactive; negative” and the mutagenic call (Test System: AMES SALMONELLA TYPHIMURIUM, Strain/Indicator: TA98, Metabolic Activation: RAT, LIVER, S-9, Method: STANDARD PLATE) was “inactive; negative”. The mutagenic call (Test System: AMES SALMONELLA TYPHIMURIUM, Strain/Indicator: TA98, Metabolic Activation: S-9, Method: STANDARD PLATE) was “inactive; negative”, the mutagenic call (Test System: AMES SALMONELLA TYPHIMURIUM, Strain/Indicator: TA100, Metabolic Activation: HAMSTER LIVER S-9, AROCLOR 1254 (10%), Method: PREINCUBATION) was “inactive; negative” and the mutagenic call (Test System: AMES SALMONELLA TYPHIMURIUM, Strain/Indicator: TA100, Metabolic Activation: HAMSTER LIVER S-9, AROCLOR 1254 (30%), Method: PREINCUBATION) was “inactive; negative”. For the same compound, the mutagenic call (Test System: AMES SALMONELLA TYPHIMURIUM, Strain/Indicator: TA100, Metabolic Activation: NONE, Method: PREINCUBATION) was “inactive; negative”, the mutagenic call (Test System: AMES SALMONELLA TYPHIMURIUM, Strain/Indicator: TA100, Metabolic Activation: RAT LIVER S-9, AROCLOR 1254 (10%), Method: PREINCUBATION) was “inactive; negative” and the mutagenic call (Test System: AMES SALMONELLA TYPHIMURIUM, Strain/Indicator: TA100, Metabolic Activation: RAT LIVER S-9, AROCLOR 1254 (30%), Method: PREINCUBATION) was “inactive; negative”. The mutagenic call (Test System: AMES SALMONELLA TYPHIMURIUM, Strain/Indicator: TA100, Metabolic Activation: RAT, LIVER, S-9, AROCLOR 1254, Method: STANDARD PLATE) was “inactive; negative”, the mutagenic call (Test System: AMES SALMONELLA TYPHIMURIUM, Strain/Indicator: TA100, Metabolic Activation: RAT, LIVER, S-9, Method: STANDARD PLATE) was “inactive; negative; toxicity at 100 ug/plate” and the mutagenic call (Test System: AMES SALMONELLA TYPHIMURIUM, Strain/Indicator: TA100, Metabolic Activation: S-9, Method: STANDARD PLATE) was “inactive; negative”. For the same compound, the mutagenic call (Test System: AMES SALMONELLA TYPHIMURIUM, Strain/Indicator: TA102, Metabolic Activation: NONE, Method: STANDARD PLATE) was “inactive; negative”, the mutagenic call (Test System: AMES SALMONELLA TYPHIMURIUM, Strain/Indicator: TA102, Metabolic Activation: S-9, Method: STANDARD PLATE) was “inactive; negative” and the mutagenic call (Test System: AMES SALMONELLA TYPHIMURIUM, Strain/Indicator: TA1535, Metabolic Activation: HAMSTER LIVER S-9, AROCLOR 1254 (30%), Method: PREINCUBATION) was “inactive; negative”. For the same compound, the mutagenic call (Test System: AMES SALMONELLA TYPHIMURIUM, Strain/Indicator: TA1535, Metabolic Activation: HAMSTER LIVER, S-9, AROCLOR 1254 (10%), Method: PREINCUBATION) was “inactive; negative”, the mutagenic call (Test System: AMES SALMONELLA TYPHIMURIUM, Strain/Indicator: TA1535, Metabolic Activation: NONE, Method: PREINCUBATION) was “inactive; negative” and the mutagenic call (Test System: AMES SALMONELLA TYPHIMURIUM, Strain/Indicator: TA1535, Metabolic Activation: RAT LIVER S-9, AROCLOR 1254 (10%), Method: PREINCUBATION) was “inactive; negative”. The mutagenic call (Test System: AMES SALMONELLA TYPHIMURIUM, Strain/Indicator: TA1535, Metabolic Activation: RAT LIVER S-9, AROCLOR 1254 (30%), Method: PREINCUBATION) was “inactive; negative”, the mutagenic call (Test System: AMES SALMONELLA TYPHIMURIUM, Strain/Indicator: TA1535, Metabolic Activation: RAT, LIVER, S-9, AROCLOR 1254, Method: STANDARD PLATE) was “inactive; negative” and the mutagenic call (Test System: AMES SALMONELLA TYPHIMURIUM, Strain/Indicator: TA1535, Metabolic Activation: RAT, LIVER, S-9, Method: STANDARD PLATE) was “inactive; negative; toxicity at 50 and 100 ug/plate”. The mutagenic call (Test System: AMES SALMONELLA TYPHIMURIUM, Strain/Indicator: TA1537, Metabolic Activation: RAT, LIVER, S-9, AROCLOR 1254, Method: STANDARD PLATE) was “inactive; negative”, the mutagenic call (Test System: AMES SALMONELLA TYPHIMURIUM, Strain/Indicator: TA1537, Metabolic Activation: RAT, LIVER, S-9, Method: STANDARD PLATE) was “inactive; negative” and the mutagenic call (Test System: AMES SALMONELLA TYPHIMURIUM, Strain/Indicator: TA1538, Metabolic Activation: NONE, Method: STANDARD PLATE) was “inactive; negative”. The mutagenic call (Test System: AMES SALMONELLA TYPHIMURIUM, Strain/Indicator: TA1538, Metabolic Activation: RAT, LIVER, S-9, AROCLOR 1254, Method: STANDARD PLATE) was “inactive; negative”, the mutagenic call (Test System: AMES SALMONELLA TYPHIMURIUM, Strain/Indicator: TA1538, Metabolic Activation: RAT, LIVER, S-9, Method: STANDARD PLATE) was “inactive; negative” and the mutagenic call (Test System: E. COLI, Strain/Indicator: WP2 UVRA, Metabolic Activation: HAMSTER, LIVER, S-9, AROCLOR 1254, Method: STANDARD PLATE) was “inactive; negative”. The mutagenic call (Test System: E. COLI, Strain/Indicator: WP2 UVRA, Metabolic Activation: HAMSTER, LIVER, S-9, Method: STANDARD PLATE) was “inactive; negative”, the mutagenic call (Test System: E. COLI, Strain/Indicator: WP2 UVRA, Metabolic Activation: MOUSE, LIVER, S-9, AROCLOR 1254, Method: STANDARD PLATE) was “inactive; negative” and the mutagenic call (Test System: E. COLI, Strain/Indicator: WP2 UVRA, Metabolic Activation: MOUSE, LIVER, S-9, Method: STANDARD PLATE) was “inactive; negative”. For the same compound, the mutagenic call (Test System: E. COLI, Strain/Indicator: WP2 UVRA, Metabolic Activation: NONE, Method: STANDARD PLATE) was “inactive; negative”, the mutagenic call (Test System: E. COLI, Strain/Indicator: WP2 UVRA, Metabolic Activation: RAT, LIVER, S-9, AROCLOR 1254, Method: STANDARD PLATE) was “inactive; negative” and the mutagenic call (Test System: E. COLI, Strain/Indicator: WP2 UVRA, Metabolic Activation: RAT, LIVER, S-9, Method: STANDARD PLATE) was “inactive; negative”. The mutagenic call (Test System: MOUSE LYMPHOMA, Strain/Indicator: L5178Y (TK+/+)/OUABAIN, Metabolic Activation: NONE, Method: SUSPENSION/PLATE) was “inactive; negative”, the mutagenic call (Test System: MOUSE LYMPHOMA, Strain/Indicator: L5178Y (TK+/+)/OUABAIN, Metabolic Activation: RAT LIVER S-9, AROCLOR 1254, Method: SUSPENSION/PLATE) was “active; positive” and the mutagenic call (Test System: MOUSE LYMPHOMA, Strain/Indicator: L5178Y (TK+/-)/TRIFLUROTHYMIDINE, Metabolic Activation: NONE, Method: SUSPENSION/PLATE) was “inactive; negative”. The mutagenic call (Test System: MOUSE LYMPHOMA, Strain/Indicator: L5178Y (TK+/-)/TRIFLUROTHYMIDINE, Metabolic Activation: RAT LIVER S-9, AROCLOR 1254, Method: SUSPENSION/PLATE) was “active; positive”, the mutagenic call (Test System: MOUSE LYMPHOMA, Strain/Indicator: L5178Y (TK+/TK-), Metabolic Activation: NONE, Method: MICROWELL) was “inactive; negative” and the mutagenic call (Test System: MOUSE LYMPHOMA, Strain/Indicator: L5178Y (TK+/TK-), Metabolic Activation: S-9, Method: MICROWELL) was “active; positive”. For the same compound, the mutagenic call (Test System: UDS RAT HEPATOCYTES, Strain/Indicator: THY INCORP (18-20 HR), Metabolic Activation: NONE, Method: LIQUID SCINTILLATION COUNTING) was “inactive; negative” and the mutagenic call (Test System: UDS RAT HEPATOCYTES, Strain/Indicator: THY INCORP, Metabolic Activation: NONE, Method: LIQUID SCINTILLATION COUNTING) was “inactive; negative”.
